Drawing on PubChem BioAssay (NCI), this text covers GI50 and TGI for ten compounds.

Molecules are shown by their SMILES.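 A five-concentration, 48-hour dose response in 96-well plates underlies each endpoint, interpolated linearly between surrounding concentrations. Here, GI50 denotes the concentration required for 50% inhibition of growth. TGI marks complete inhibition of growth.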 Where a SMILES comes first, the peptide text is derived from it. [ ]: non-standard residue; d: D form. 2Nal = N[CH](Cc1ccc2ccccc2c1)C(=O)O

Assay in all cases: growth of human tumour cells (NCI), 48 h
The subject of test [1] is SN12C renal.
Test [2] deals with HS 578T breast.
Test [3] concerns KM12 colon.
Test [4] deals with SNB-19 CNS.
In test [5] the test system is TK-10 renal.
In test [6] the test system is RXF 393 renal.
Test [7] relates to NCI-H460 lung.
Test [8] relates to SK-MEL-28 melanoma.
In test [9] the test system is OVCAR-5 ovarian.
The subject of test [10] is RPMI-8226 leukemia.

Consider `COC(=O)C1=C(O)[C@H](C(=O)OC)[C@]2(O)[C@@H](C(=O)OC)[C@H]1C[C@@H](c1ccc(OC(=O)/C=C/c3ccco3)cc1)[C@@H]2C(=O)OC`, for which the GI50 in test [1] was 22.4 µM; in [2] it was greater than 100 µM; in [3], 43.7 µM; in test [4], 22.6 µM; in [5] it was 47.1 µM; in [6] it was 41.6 µM. The GI50 was 33 µM in test [7], 29.1 µM in [8], 19.1 µM in test [9] and 0.293 µM in test [10]. The TGI in test [1] was 52.3 µM; in test [2] it was greater than 100 µM; in test [3] it was greater than 100 µM; in [4], 87.5 µM; in test [5], greater than 100 µM; in test [6], greater than 100 µM. Moreover, the TGI in [7] is greater than 100 µM; in test [8], greater than 100 µM; in test [9], 43.3 µM; in test [10] it was 57.5 µM.

As for `CC(C)(C)c1ccc(O)c(CN(Cc2cc(C(C)(C)C)ccc2O)C2CCCCC2)c1`, the TGI was found to be 42.1 µM in test [1]; 45.3 µM in [2]; 41.2 µM in [3]; 41 µM in test [4]; 32.4 µM in [5]; 30 µM in test [6]. Besides, the TGI in test [7] came to 31.5 µM; in test [8], 27.2 µM; in test [9] it was 34.1 µM; in test [10] it was 25.1 µM.

Take `CC(C)C(NC(=O)C(CCCCN)NC(=O)C(Cc1c[nH]c2ccccc12)NC(=O)C(Cc1ccc(O)cc1)NC(=O)C(CS)NC(=O)C(N)Cc1ccc2ccccc2c1)C(=O)NC(CS)C(=O)NC(C(N)=O)C(C)O` (stereo not given) (H-[2Nal]CYWKVCT-NH2; configuration not given here): the GI50 in [1], in test [3], in test [6], in test [7] and in test [10] was greater than 100 µM throughout. Also, the TGI was greater than 100 µM in [1]; greater than 12.5 µM in test [2]; greater than 100 µM in [3]; greater than 100 µM in test [4]; greater than 100 µM in test [6]; greater than 100 µM in test [7]. For the same compound, the TGI in test [8] is greater than 100 µM; in test [9], greater than 12.5 µM; in test [10], greater than 100 µM.

`C1CCN2CC3CCCN4CCCC(C2C1)C34` (stereo not given): the TGI in [1], in test [2], in test [3], in test [4], in [5] and in [6] was greater than 100 µM in each case. Moreover, the TGI in test [7], in test [8], in test [9] and in [10] was greater than 100 µM each time.

`CO[C@@H]1[C@H]2[C@@H](C)c3ccoc3C[C@@H]2[C@@]2(C)CC[C@H](OC(=O)c3ccccc3)[C@](C)(C(=O)O)[C@]2(O)[C@@H]1OC(=O)c1ccccc1`: the GI50 in test [1] was 7.11 µM; in test [2], 24.8 µM; in test [3], 8.83 µM; in test [4], 16.1 µM; in test [5] it was 14.3 µM; in [6] it was 12.2 µM. Besides, the GI50 in test [7] was 13.4 µM; in test [8], 14.5 µM; in [9], 12 µM; in test [10] it was 15.4 µM. Further, the TGI in test [1] is 17 µM; in test [2], greater than 50 µM; in test [3] it was 33.5 µM; in test [4], greater than 50 µM; in test [5], greater than 50 µM; in test [6], 39 µM. Further, the TGI was greater than 50 µM in [7], greater than 50 µM in test [8], 31.2 µM in test [9] and greater than 50 µM in [10].

As to `COC(=O)C(=O)C(C(=O)C(=O)Nc1ccc(C)cc1)c1nc2ccc(C(=O)c3ccccc3)cc2[nH]c1=O` (stereo not given), the TGI in [1], in [2], in test [3], in test [4], in [5] and in [6] was greater than 100 µM in each case. Further, the TGI in test [7], in test [8], in [9] and in test [10] was greater than 100 µM each time.

On to `C/C=C(/C)C(=O)OC1C=C(CO)C(=O)C(OC(=O)C(C)(O)C(C)Cl)C1C(C)C` (stereo not given), for which the GI50 in [1] is 0.731 µM; in test [2], 4.78 µM; in test [3], 1.75 µM; in test [4], 1.48 µM; in test [5], 1.55 µM; in test [6] it was 1.6 µM. The GI50 in test [7] was 2.28 µM; in test [8], 1.46 µM; in test [9], 0.971 µM; in [10], 0.429 µM. Moreover, the TGI in [1] was 2.11 µM; in test [2] it was 24.4 µM; in test [3], 3.47 µM; in test [4] it was 2.91 µM; in test [5], 3.05 µM; in test [6], 3.13 µM. The TGI in test [7] came out at 8.62 µM; in [8], 2.98 µM; in [9] it was 2.72 µM; in test [10], 2.65 µM.

For the compound `O=C1NC(S(=O)(=O)O)=NNC12c1ccccc1-c1ccccc12`, the TGI in test [1], in test [2], in test [3], in test [4], in test [5] and in test [6] was greater than 10 µM each time. Besides, the TGI in test [7], in [8] and in test [10] was greater than 10 µM in each case.

Take `O=C(Nc1nc(-c2ccc(Cl)cc2)nc2c1sc(=S)n2-c1ccccc1)C(F)(F)F`: the GI50 is 11.3 µM in test [1]; 3.37 µM in test [2]; 4.89 µM in [3]; 7.18 µM in test [4]; 2.36 µM in [6]; 2.72 µM in [7]. In addition, the GI50 in test [8] was 6.01 µM; in test [9] it was 6.23 µM; in test [10], 8.37 µM. Moreover, the TGI in test [1] is 45.3 µM; in test [2], 9.7 µM; in test [3] it was greater than 100 µM; in test [4] it was 37.5 µM; in test [6], 5.01 µM; in test [7], 7.26 µM. The TGI in test [8] was greater than 100 µM; in test [9], 26.6 µM; in test [10], greater than 100 µM.

Regarding `CC(O[Si](c1ccccc1)(c1ccccc1)C(C)(C)C)[C@H](NC(=O)OC(C)(C)C)C(=O)O` (stereo not given in full), the TGI in test [2], in test [3], in test [4], in [5], in [6] and in test [7] was greater than 100 µM throughout. The TGI in [8], in test [9] and in test [10] was greater than 100 µM in each case.
